Legend:
HaCaT keratinocytes = experiment: Investigations on the lipid (fatty acid) content of HaCaT keratinocytes under biotin; assay type: cell-based, human
Protocol: (§1) HaCaT cells (human adult low-calcium high-temperature keratinocytes) and native human keratinocytes are cultured in Gibco's keratinocyte serum-free medium (SFM) with addition of BPE (25 μg/ml bovine hypophysis extract) and rEGF (0.1-0.2 ng/ml, recombinant epidermal growth factor) in 5% strength CO2 atmosphere (pH 7.2-7.4) at 36.6° C. in the low-calcium status (0.09 mM) in culture flasks (1 million cells/20 ml of SFM) and treated with the biotin solution (biotin dissolved in buffer according to McIloaine; medium concentration 10^−7-10^−3 mol/l and solvent control) on the 3rd day after sowing. On the 6th day, the confluent monolayer is harvested and the samples are prepared, individual pellets up to 3 million cells each being used for the lipid extraction and for the protein determination.
The cells are extracted following the lipid extraction of Bligh and Dyer (B. E. Bligh et al. (1959) A rapid method of total lipid extraction and purification. Can. J. Biochem. Physiol. 37: 911-917). For this, the cell pellet is treated with 20 ml of a solvent mixture (chloroform: methanol=2:1), homogenized with stirring and extracted with shaking in the dark for 30 min. It is then filtered through a sterile filter and the extract is concentrated on a vacuum rotary evaporator.
(§2) The lipid film is taken up in 4 ml of methanol (gradient grade for HPLC) and analyzed via GC-MS.
The extracted lipids of the keratinocytes are analyzed as methanolic solutions via GC-MS in order to quantify the fatty acids contained therein. 100 μl of the solution are reacted with 1 μl each of 0.2 M trimethylsulfionium hydroxide to give methyl esters in order to improve the evaporability.
(§3) The protein content of the cells is determined according to the Lowry method using the protein assay kit. After preparation according to the procedure for the kit (P 5656), the measurement was carried out on an absorption reader at 690 nm.
The results of the influence of biotin on the fatty acid content of HaCaT keratinocytes are shown in FIGS. 1 to 4 for various concentrations of biotin (dissolved in buffer according to McIloaine). As control, the fatty acid content of the HaCaT keratinocytes after corresponding action of the buffer without biotin is moreover shown in FIGS. 1 to 4. The contents of the fatty acids myristic acid (MA), palmitic acid (PA), stearic acid (SA), oleic acid (OS) and linoleic acid (LA) are shown based on the protein content of the cells.

[1] = test system: native human keratinocytes; experiment: Investigations on the lipid (fatty acid) content of native human keratinocytes under biotin; assay type: cell-based; details: under the action of biotin
Protocol: as §1, with “determination. […]” for “determination.”
as §2
The extracted lipids of the keratinocytes are analyzed as methanolic solutions via GC-MS in order to quantify the fatty acids contained therein. […]
as §3

[2] = Penetration investigations on human skin ex vivo (FRANZ diffusion cell, 14C-biotin); assay type: in vitro ADME
Source text: To characterize the penetration behavior of biotin from different emulsions in excised human skin, FRANZ's diffusion cell is chosen as an in-vitro model. The selection of the model is based on the experience of the authors, who were able to detect correlating results between the in-vitro data of the model and the in-vivo results (R. J. Feldmann, et al. (1970): Absorption of some organic compounds through the skin in man. J. Invest. Dermatol. 54: 399-404: T. J. Franz (1975): Percutaneous absorption. On the relevance of in vitro data. J. Invest. Dermatol. 64: 190-195). The basic unit of the FRANZ diffusion cell consists of a double-walled, temperature-controllable glass section. The acceptor liquid which is continuously kept in the homogeneous state by stirring is situated therein. In direct contact with the acceptor is the sample material on a gauze, which is stabilized by a glass ring and a metal clamp. A glass cover functions as evaporation protection for the upkeep of largely constant hydration conditions during the investigation period. […] It is determined quantitatively in fractionation of the detachments in pairs (10×2). […] Following this, the samples are measured in the liquid scintillation counter with addition of two blank values. […]

skin of old people = details: cited from earlier work
[3] = cited from earlier work

In the case of `O=C(O)CCCCC1SCC2NC(=O)NC21` (stereo not drawn) [biotin, hexahydro-2-oxiothieno [3,4-d]imidazole-4-valeric acid], the “concentration of linoleic acid (LA)” value (HaCaT keratinocytes; HaCaT keratinocytes, under the action of biotin) was “absence of an increase”, the “lipid synthesis power of keratinocytes” value (HaCaT keratinocytes; biotin concentration in the medium 10^−5 to 10^−3 mol/l) was “increased” and the “lipid synthesis power of keratinocytes” value (HaCaT keratinocytes; biotin concentration in the medium 10^−6 mol/l) was “inefficacious”. For the same compound, the “concentration of the fatty acids myristic acid (MA), palmitic acid (PA), stearic acid (SA) and oleic acid (OA)” value (HaCaT keratinocytes; culture of HaCaT keratinocytes, under the action of biotin) was “Increases”, the effective biotin concentration (HaCaT keratinocytes; stimulation of lipid synthesis, from FIG. 2) was 10^−5 mol/l and the “concentration of linoleic acid (LA)” value [1] was “absence of an increase”. The “concentration of the fatty acids myristic acid (MA), palmitic acid (PA), stearic acid (SA) and oleic acid (OA)” value [1] was “Increases”, the “penetration of biotin through the horny layer of the human skin” value [2] was “does not penetrate or does not penetrate in an efficacious concentration” and the “epithelial and histopathological changes in the areas treated” value (skin of old people; in vivo) was “not possible to show any epithelial and histopathological changes at all”. The “development of wrinkles on the skin of old people” value (skin of old people; topically applied formulations, biotin content 0.25% and 0.50%) was “visible reduction”, the “efficacy in soft, brittle and splitting nails, different forms of alopecia and atopic and seborrheic dermatitis” value ([3]; continuous biotin therapy) was “possible to show the efficacy” and the side effects ([3]; in vivo) was “no side effects at all”.

Source: patent US6660251B1, “Galenic formulation containing biotin” (Merck Patent GmbH, priority 1999, dated 2003)
